Laboratory results reported in patent publication US6869959B1, “Heterocyclic carboxylic acid derivatives” (Institute of Medicinal Molecular Design Inc., priority 1999, dated 2005).
One block for each compound: values may come before it.

Experiments:
[1] = tested on: promyelocytic leukemia cell stain HL-60; test: Cell differentiation-inducing activity test in HL-60 cell, each compound alone; format: cell-based; details: HL-60, NBT reduction
Text: (§1) By using the above compounds, cell differentiation-inducing activity of each compound alone, and effect on cell differentiation-inducing action of a co-existing retinoid were examined. As a comparative and co-existing retinoid, Am80: 4-[(5,6,7,8-tetrahydro-5,5,8,8-tetramethyl-2-naphthalenyl)carbamoyl]benzoic acid (1×10^−10 M) was used. According to the method described in Japanese Patent Unexamined Publication (KOKAI) No.(Sho)61-76440/1986, promyelocytic leukemia cell stain HL-60 was used, and differentiation into granulocytic cells was determined by observing morphological change and measuring ability to reduce nitroblue tetrazolium (NBT). The ratios of differentiated cells shown in the following table were calculated from the ability of reducing NBT.

[2] = tested on: promyelocytic leukemia cell stain HL-60; test: Effect on cell differentiation-inducing action of co-existing retinoid Am80 in HL-60 cell; format: cell-based; details: HL-60, NBT reduction
Text: as §1

SMILES: CCCN(c1ccc2c(c1)C(C)(C)CCC2(C)C)c1ncc(C(=O)O)cn1 [Compound 3]
Ratio of differentiated cells by each compound alone (%) ([1]; compound concentration 10^−6 M): 16% | Ratio of differentiated cells by each compound alone (%) ([1]; compound concentration 10^−7 M): 14% | Ratio of differentiated cells by each compound alone (%) ([1]; compound concentration 10^−8 M): 9% | Ratio of differentiated cells by each compound co-existing with 1 × 10^−10 M Am80 (%) ([2]; compound concentration 10^−7 M + 1 × 10^−10 M Am80): 89% | Ratio of differentiated cells by each compound co-existing with 1 × 10^−10 M Am80 (%) ([2]; compound concentration 10^−8 M + 1 × 10^−10 M Am80): 87% | Ratio of differentiated cells by each compound co-existing with 1 × 10^−10 M Am80 (%) ([2]; compound concentration 10^−9 M + 1 × 10^−10 M Am80): 90% | Ratio of differentiated cells by each compound co-existing with 1 × 10^−10 M Am80 (%) ([2]; compound concentration 10^−10 M + 1 × 10^−10 M Am80): 60% | Ratio of differentiated cells by each compound co-existing with 1 × 10^−10 M Am80 (%) ([2]; compound concentration 10^−11 M + 1 × 10^−10 M Am80): 27%

melting point: 267 °C
SMILES: Cc1cc2c(cc1Nc1ncc(C(=O)O)cn1)C(C)(C)CCC2(C)C [Compound 5, 2-[N-(5,6,7,8-Tetrahydro-3,5,5,8,8-pentamethylnaphthalen-2-yl)amino]pyrimidine-5-carboxylic Acid]

melting point: 193 °C
SMILES: CCCN(c1ncc(C(=O)O)cn1)c1cc2c(cc1C)C(C)(C)CCC2(C)C [Compound 7, 2-[N-n-Propyl-N-(5,6,7,8-tetrahydro-3,5,5,8,8-pentamethyl-naphthalen-2-yl)amino]pyrimidine-5-carboxylic Acid]

melting point: 123 °C
SMILES: Cc1cc2c(cc1N(CC1CC1)c1ncc(C(=O)O)cn1)C(C)(C)CCC2(C)C [Compound 8, 2-[N-Cyclopropylmethyl-N-(5,6,7,8-tetrahydro-3,5,5,8,8-pentamethylnaphthalen-2-yl)amino]pyrimidine-5-carboxylic Acid]

melting point: 261 to 263 °C
SMILES: CN(c1cc(C(C)(C)C)cc(C(C)(C)C)c1)c1ncc(C(=O)O)cn1 [Compound 9, 2-[N-(3,5-Di-tert-butylphenyl)-N-methylamino] pyrimidine-5-carboxylic Acid]

melting point: 219 °C
SMILES: CCCN(c1ncc(C(=O)O)cn1)c1cc(C(C)(C)C)ccc1C(C)(C)C [Compound 11, 2-[N-(3,6-Di-tert-butylphenyl)-N-n-propylamino]pyrimidine-5-carboxylic Acid]

melting point: 194 °C
SMILES: CC(C)(C)c1cc(N(CC2CC2)c2ncc(C(=O)O)cn2)cc(C(C)(C)C)c1 [Compound 12, 2-[N-Cyclopropylmethyl-N-(3,5-di-tert-butylphenyl)-amino]pyrimidine5-carboxylic Acid]
